The target in assay [1] is T1, TYK2 JH2 (Homo sapiens, UniProt P29597).
T1 construct: purchased DiscoverX (KINOMEscan KdELECT service); host or cells: E. coli BL21-derived (T7 phage display) or HEK-293
In words: TYK2 JH2 binding assay (KINOMEscan KdELECT competitive binding). The note with it: TYK2 JH2 domain, KINOMEscan KdELECT (Assay A); read-out: Biochemical TYK2_DiscoverX_JH2_BND_Kd. Put shortly:
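Competition binding, KdELECT format. Kinase (phage-tagged, E. coli BL21-derived host; or HEK-293, DNA-tagged) + ligand-coated streptavidin beads + cpd, 1 h RT, final DMSO 0.9%. Wash, elute 30 min with 0.5 μM non-biotinylated ligand; qPCR readout. Kd: 11-pt, 3-fold series.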

The test system of assay [2] is JAK1/TYK2 pSTAT5 (Tyr694/699) in THP-1 cell line. The experiment in a line: IFNa-stimulated JAK1/TYK2 pSTAT5 (Tyr694/699) inhibition cellular assay, AlphaLISA. In kind it is cell-based. The note with it: Homo sapiens; THP-1 cells, IFNa-stimulated, AlphaLISA (Assay B); read-out: Cellular_THP1_IFNa-pSTATS_TYK2. Summed up:
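THP-1 cells (2e4/well in HBSS) were preincubated with compound (8 points, 6-fold steps from 10000 nM final) for 1 h at 37 °C, then stimulated with IFNa (added at 100 ng/mL) for 30 min. Lysate pSTAT5 was read by AlphaLISA at 615 nm. IC50 came from a 4-parameter fit with bottom 0 and Hill −1.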
(In Alpha technology, singlet oxygen from a donor bead excites a nearby acceptor bead.)

pIC50, pKd: −log10 of the molar value.

T1 sequence (P29597 589-875 limits assumed): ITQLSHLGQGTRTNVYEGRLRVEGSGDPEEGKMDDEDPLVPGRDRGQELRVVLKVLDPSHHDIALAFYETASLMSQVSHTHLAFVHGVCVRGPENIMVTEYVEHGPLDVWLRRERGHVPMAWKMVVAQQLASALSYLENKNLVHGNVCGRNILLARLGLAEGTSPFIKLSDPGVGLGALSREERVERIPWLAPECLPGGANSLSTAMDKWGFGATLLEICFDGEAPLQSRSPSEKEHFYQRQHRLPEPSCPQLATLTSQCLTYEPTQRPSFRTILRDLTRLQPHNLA

With `CNc1ncc(C#Cc2ccc(C(C)=O)c(O)c2)c2cc(NC(=O)C3CC3)ncc12` [Example 749, N-(5-((4-acetyl-3-hydroxyphenyl)ethynyl)-8-(methylamino)-2,7-naphthyridin-3-yl)cyclopropanecarboxamide], the pKd in assay [1] is ≥ 7.00. In addition, the pIC50 in assay [2] was ≥ 6.30.

As to `CCNc1ncc(C#Cc2ccc3nc4n(c3c2)CCOC4)c2cc(NC(=O)C3CC3)ncc12` [Example 750, N-(5-((3,4-dihydro-1H-benzo[4,5]imidazo[2,1-c][1,4]oxazin-7-yl)ethynyl)-8-(ethylamino)-2,7-naphthyridin-3-yl)cyclopropanecarboxamide], the pKd in assay [1] was ≥ 7.00. For the same compound, the pIC50 in assay [2] is ≥ 6.30.

On to `CNc1ncc(C#Cc2ccc3nnn(C)c3c2)c2cc(Nc3ccccn3)ncc12` [Example 751, N^1-methyl-4-((1-methyl-1H-benzo[d][1,2,3]triazol-6-yl)ethynyl)-N^6-(pyridin-2-yl)-2,7-naphthyridine-1,6-diamine], for which, in assay [1], the pKd is ≥ 7.00. For the same compound, the pIC50 in assay [2] was ≥ 6.30.

Take `CNc1ncc(C#Cc2ccc(OC)cc2)c2cc(NC(=O)[C@@H]3C[C@@H]3F)ncc12` [Example 752, (1S,2S)-2-fluoro-N-(5-((4-methoxyphenyl)ethynyl)-8-(methylamino)-2,7-naphthyridin-3-yl)cyclopropane-1-carboxamide]: the pKd in assay [1] is ≥ 7.00. For the same compound, the pIC50 in assay [2] was ≥ 6.30.

On to `CNc1ncc(C#Cc2ccc(OC)cc2)c2cc(NC(=O)[C@H]3C[C@H]3C)ncc12` [Example 753, (1S,2R)—N-(5-((4-methoxyphenyl)ethynyl)-8-(methylamino)-2,7-naphthyridin-3-yl)-2-methylcyclopropane-1-carboxamide], for which, in assay [1], the pKd is ≥ 7.00. Also, the pIC50 in assay [2] is ≥ 6.30.

Take `CNc1ncc(C#Cc2ccc3nc4n(c3c2)CCOC4)c2cc(NC(=O)C3(F)CC3)ncc12` [Example 758, N-(5-((3,4-dihydro-1H-benzo[4,5]imidazo[2,1-c][1,4]oxazin-7-yl)ethynyl)-8-(methylamino)-2,7-naphthyridin-3-yl)-1-fluorocyclopropane-1-carboxamide]: in assay [1], the pKd was ≥ 7.00. Moreover, in assay [2], the pIC50 was ≥ 6.30.

Consider `CNc1ncc(C#Cc2ccc3nnn(C)c3c2)c2cc(NC(=O)C3(F)CC3)ncc12` [Example 759, 1-fluoro-N-(5-((1-methyl-1H-benzo[d][1,2,3]triazol-6-yl)ethynyl)-8-(methylamino)-2,7-naphthyridin-3-yl)cyclopropane-1-carboxamide], for which the pKd in assay [1] is ≥ 7.00. Moreover, in assay [2], the pIC50 was < 6.30.

`CNc1ncc(C#Cc2ccc(OC3CN(C(C)=O)C3)cc2)c2cc(NC(=O)C3(F)CC3)ncc12` [Example 760, N-(5-((4-((1-acetylazetidin-3-yl)oxy)phenyl)ethynyl)-8-(methylamino)-2,7-naphthyridin-3-yl)-1-fluorocyclopropane-1-carboxamide]: the pKd in assay [1] was ≥ 7.00. The pIC50 in assay [2] was ≥ 6.30.

With `CCn1c(C)nc2ccc(C#Cc3cnc(NC)c4cnc(NC(=O)C5CC5)cc34)cc21` [Example 761, N-(5-((1-ethyl-2-methyl-1H-benzo[d]imidazol-6-yl)ethynyl)-8-(methylamino)-2,7-naphthyridin-3-yl)cyclopropanecarboxamide], in assay [1], the pKd is ≥ 7.00. Besides, in assay [2], the pIC50 is ≥ 6.30.

As for `CCn1c(C)nc2cc(C#Cc3cnc(NC)c4cnc(NC(=O)C5CC5)cc34)ccc21` [Example 762, N-(5-((1-ethyl-2-methyl-1H-benzo[d]imidazol-5-yl)ethynyl)-8-(methylamino)-2,7-naphthyridin-3-yl)cyclopropanecarboxamide], in assay [1], the pKd was ≥ 7.00. For the same compound, in assay [2], the pIC50 is ≥ 6.30.

With `CNc1ncc(C#Cc2ccc3nc(C)n(C(F)F)c3c2)c2cc(NC(=O)C3CC3)ncc12` [Example 763, N-(5-((1-(difluoromethyl)-2-methyl-1H-benzo[d]imidazol-6-yl)ethynyl)-8-(methylamino)-2,7-naphthyridin-3-yl)cyclopropanecarboxamide], the pKd in assay [1] was ≥ 7.00. Further, in assay [2], the pIC50 was ≥ 6.30.

Turning to `CNc1ncc(C#Cc2ccc3c(c2)nc(C)n3C(F)F)c2cc(NC(=O)C3CC3)ncc12` [Example 764, A-(5-((1-(difluoromethyl)-2-methyl-1H-benzo[d]imidazol-5-yl)ethynyl)-8-(methylamino)-2,7-naphthyridin-3-yl)cyclopropanecarboxamide], the pKd in assay [1] is ≥ 7.00. The pIC50 in assay [2] was ≥ 6.30.

For the compound `CNc1ncc(-c2cc3ccc(OC)cn3n2)c2cc(NC(=O)C3CC3)ncc12` [Example 765, N-(5-(6-methoxypyrazolo[1,5-a]pyridin-2-yl)-8-(methylamino)-2,7-naphthyridin-3-yl)cyclopropanecarboxamide], the pKd in assay [1] was ≥ 7.00. The pIC50 in assay [2] was ≥ 6.30.

For `CNc1ncc(C#Cc2cc3ccc(OC)cn3n2)c2cc(NC(=O)C3CC3)ncc12` [Example 766, N-(5-((6-methoxypyrazolo[1,5-a]pyridin-2-yl)ethynyl)-8-(methylamino)-2,7-naphthyridin-3-yl)cyclopropanecarboxamide], the pKd in assay [1] is ≥ 7.00. Also, in assay [2], the pIC50 was ≥ 6.30.

As for `CNc1ncc(C#Cc2cc3ccc(F)cn3n2)c2cc(NC(=O)C3CC3)ncc12` [Example 767, N-(5-((6-fluoropyrazolo[1,5-a]pyridin-2-yl)ethynyl)-8-(methylamino)-2,7-naphthyridin-3-yl)cyclopropanecarboxamide], the pKd in assay [1] is ≥ 7.00. Besides, the pIC50 in assay [2] was ≥ 6.30.

For `CNc1ncc(C#Cc2ccc(OC[C@@H]3COCCO3)cc2)c2cc(NC(=O)C3CC3)ncc12` [Example 768, (S)—N-(5-((4-((1,4-dioxan-2-yl)methoxy)phenyl)ethynyl)-8-(methylamino)-2,7-naphthyridin-3-yl)cyclopropanecarboxamide], the pKd in assay [1] is ≥ 7.00. For the same compound, in assay [2], the pIC50 was ≥ 6.30.

On to `CNc1ncc(C#Cc2ccc(P(C)(C)=O)cc2)c2cc(NC(=O)C3CC3)ncc12` [Example 769, N-(5-((4-(dimethylphosphoryl)phenyl)ethynyl)-8-(methylamino)-2,7-naphthyridin-3-yl)cyclopropanecarboxamide], for which, in assay [1], the pKd was ≥ 7.00. In addition, in assay [2], the pIC50 was ≥ 6.30.

With `CCC(=O)N1CC(Oc2ccc(C#Cc3cnc(NC)c4cnc(NC(=O)C5CC5)cc34)cc2)C1` [Example 770, N-(8-(methylamino)-5-((4-((1-propionylazetidin-3-yl)oxy)phenyl)ethynyl)-2,7-naphthyridin-3-yl) cyclopropanecarboxamide], the pKd in assay [1] is ≥ 7.00. In addition, in assay [2], the pIC50 is ≥ 6.30.

As for `CNc1ncc(C#Cc2ccc(OC3CN(C(=O)C4CC4)C3)cc2)c2cc(NC(=O)C3CC3)ncc12` [Example 771, N-(5-((4-((1-(cyclopropanecarbonyl)azetidin-3-yl)oxy)phenyl)ethynyl)-8-(methylamino)-2,7-naphthyridin-3-yl)cyclopropanecarboxamide], the pKd in assay [1] was ≥ 7.00. For the same compound, in assay [2], the pIC50 was ≥ 6.30.

On to `CNc1ncc(C#Cc2ccc(-n3nccn3)cc2)c2cc(NC(=O)C3CC3)ncc12` [Example 772, N-(5-((4-(2H-1,2,3-triazol-2-yl)phenyl)ethynyl)-8-(methylamino)-2,7-naphthyridin-3-yl)cyclopropanecarboxamide], for which the pKd in assay [1] was ≥ 7.00. In addition, the pIC50 in assay [2] is ≥ 6.30.

The values are drawn from patent US20240025906A1 (NEURON23, INC., priority 2022, published 2024).
